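Compound exposure: 48 hours, 5 concentrations, 96-well plates. At the TGI there is no net growth.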
Columns and labels:
Assay in all cases: DTP human tumour cell line panel, 48 h
786-0 renal = system: 786-0 renal
A498 renal = system: A498 renal
A549 NSCLC = system: A549 NSCLC
ACHN renal = system: ACHN renal
BT-549 breast = system: BT-549 breast
CAKI-1 renal = system: CAKI-1 renal
CCRF-CEM leukemia = system: CCRF-CEM leukemia
COLO 205 colon = system: COLO 205 colon
DU-145 prostate = system: DU-145 prostate
EKVX NSCLC = system: EKVX NSCLC
HCC-2998 colon = system: HCC-2998 colon
HCT-116 colon = system: HCT-116 colon
HCT-15 colon = system: HCT-15 colon
HOP-62 NSCLC = system: HOP-62 NSCLC
HOP-92 NSCLC = system: HOP-92 NSCLC
HS 578T breast = system: HS 578T breast
HT29 colon = system: HT29 colon
IGROV1 ovarian = system: IGROV1 ovarian
K-562 leukemia = system: K-562 leukemia
KM12 colon = system: KM12 colon
M14 melanoma = system: M14 melanoma
MCF7 breast = system: MCF7 breast
MDA-MB-231 breast = system: MDA-MB-231 breast
MDA-MB-435 = system: MDA-MB-435
MOLT-4 leukemia = system: MOLT-4 leukemia
NCI-H226 lung = system: NCI-H226 lung
NCI-H23 lung = system: NCI-H23 lung
NCI-H522 lung = system: NCI-H522 lung
NCI/ADR-RES ovarian = system: NCI/ADR-RES ovarian
OVCAR-3 ovarian = system: OVCAR-3 ovarian
OVCAR-4 ovarian = system: OVCAR-4 ovarian
OVCAR-5 ovarian = system: OVCAR-5 ovarian
OVCAR-8 ovarian = system: OVCAR-8 ovarian
PC-3 prostate = system: PC-3 prostate
RPMI-8226 leukemia = system: RPMI-8226 leukemia
RXF 393 renal = system: RXF 393 renal
SF-268 CNS = system: SF-268 CNS
SF-295 CNS = system: SF-295 CNS
SF-539 CNS = system: SF-539 CNS
SK-MEL-2 melanoma = system: SK-MEL-2 melanoma
SK-MEL-28 melanoma = system: SK-MEL-28 melanoma
SK-MEL-5 melanoma = system: SK-MEL-5 melanoma
SK-OV-3 ovarian = system: SK-OV-3 ovarian
SN12C renal = system: SN12C renal
SNB-19 CNS = system: SNB-19 CNS
SNB-75 CNS = system: SNB-75 CNS
SW-620 colon = system: SW-620 colon
T-47D breast = system: T-47D breast
TK-10 renal = system: TK-10 renal
U251 CNS = system: U251 CNS
UACC-257 melanoma = system: UACC-257 melanoma
UACC-62 melanoma = system: UACC-62 melanoma
UO-31 renal = system: UO-31 renal
HL-60(TB) leukemia = system: HL-60(TB) leukemia
SR leukemia = system: SR leukemia

COc1ccc2c(c1)C(N)CC2=O (configuration not stated)
TGI (786-0 renal): > 100 µM
TGI (A498 renal): > 100 µM
TGI (A549 NSCLC): 38.2 µM
TGI (ACHN renal): > 100 µM
TGI (BT-549 breast): > 100 µM
TGI (CAKI-1 renal): > 100 µM
TGI (CCRF-CEM leukemia): > 100 µM
TGI (COLO 205 colon): > 100 µM
TGI (DU-145 prostate): > 100 µM
TGI (EKVX NSCLC): > 100 µM
TGI (HCC-2998 colon): > 100 µM
TGI (HCT-116 colon): > 100 µM
TGI (HCT-15 colon): > 100 µM
TGI (HOP-62 NSCLC): > 100 µM
TGI (HOP-92 NSCLC): > 100 µM
TGI (HS 578T breast): > 100 µM
TGI (HT29 colon): > 100 µM
TGI (IGROV1 ovarian): > 100 µM
TGI (K-562 leukemia): > 100 µM
TGI (KM12 colon): > 100 µM
TGI (M14 melanoma): > 100 µM
TGI (MCF7 breast): > 100 µM
TGI (MDA-MB-231 breast): > 100 µM
TGI (MDA-MB-435): > 100 µM
TGI (MOLT-4 leukemia): > 100 µM
TGI (NCI-H226 lung): > 100 µM
TGI (NCI-H23 lung): > 100 µM
TGI (NCI-H522 lung): > 100 µM
TGI (NCI/ADR-RES ovarian): > 100 µM
TGI (OVCAR-3 ovarian): > 100 µM
TGI (OVCAR-4 ovarian): > 100 µM
TGI (OVCAR-5 ovarian): > 100 µM
TGI (OVCAR-8 ovarian): > 100 µM
TGI (PC-3 prostate): 34.8 µM
TGI (RPMI-8226 leukemia): > 100 µM
TGI (RXF 393 renal): 36.3 µM
TGI (SF-268 CNS): > 100 µM
TGI (SF-295 CNS): > 100 µM
TGI (SF-539 CNS): > 100 µM
TGI (SK-MEL-2 melanoma): 74.1 µM
TGI (SK-MEL-28 melanoma): > 100 µM
TGI (SK-MEL-5 melanoma): > 100 µM
TGI (SK-OV-3 ovarian): > 100 µM
TGI (SN12C renal): > 100 µM
TGI (SNB-19 CNS): > 100 µM
TGI (SNB-75 CNS): > 100 µM
TGI (SW-620 colon): > 100 µM
TGI (T-47D breast): > 100 µM
TGI (TK-10 renal): > 100 µM
TGI (U251 CNS): > 100 µM
TGI (UACC-257 melanoma): > 100 µM
TGI (UACC-62 melanoma): > 100 µM
TGI (UO-31 renal): > 100 µM

Cc1ccccc1NC(=O)NC(Oc1ccccc1)(C(F)(F)F)C(F)(F)F
TGI (786-0 renal): > 100 µM
TGI (A498 renal): > 100 µM
TGI (ACHN renal): > 100 µM
TGI (BT-549 breast): > 100 µM
TGI (CAKI-1 renal): 97.5 µM
TGI (CCRF-CEM leukemia): > 100 µM
TGI (COLO 205 colon): > 100 µM
TGI (HCC-2998 colon): > 100 µM
TGI (HCT-116 colon): > 100 µM
TGI (HL-60(TB) leukemia): > 100 µM
TGI (HS 578T breast): > 100 µM
TGI (HT29 colon): > 100 µM
TGI (IGROV1 ovarian): > 100 µM
TGI (K-562 leukemia): > 100 µM
TGI (M14 melanoma): > 100 µM
TGI (MDA-MB-435): > 100 µM
TGI (MOLT-4 leukemia): > 100 µM
TGI (NCI-H23 lung): > 100 µM
TGI (NCI/ADR-RES ovarian): > 100 µM
TGI (OVCAR-5 ovarian): > 100 µM
TGI (RPMI-8226 leukemia): > 100 µM
TGI (RXF 393 renal): > 100 µM
TGI (SF-268 CNS): > 100 µM
TGI (SF-539 CNS): > 100 µM
TGI (SK-MEL-2 melanoma): > 100 µM
TGI (SK-MEL-28 melanoma): > 100 µM
TGI (SK-OV-3 ovarian): > 100 µM
TGI (SNB-19 CNS): > 100 µM
TGI (SNB-75 CNS): > 100 µM
TGI (SR leukemia): > 100 µM
TGI (T-47D breast): > 100 µM
TGI (U251 CNS): > 100 µM
TGI (UACC-257 melanoma): > 100 µM
TGI (UO-31 renal): > 100 µM

Source: PubChem BioAssay (NCI)
